Test results reported in patent publication US20180360972A1, “THERAPEUTIC COMPOUNDS” (REGENTS OF THE UNIVERSITY OF MINNESOTA, priority 2017, published 2018).
Entries after “also recorded” stand apart in the source; their conditions may differ. Like-named read-outs stand apart in the source and are kept apart here.

Experiments:
male MC4RKO mice = experiment: ICV administration, conventional cages, male MC4RKO mice; assay type: in vivo
Experimental: (§1) All experiments were performed in accordance with the Institutional Animal Care and Use Committee (IACUC) at the University of Minnesota. Female and male littermates with mixed background from C57BL/6J and 129/Sv inbred strains were 8 weeks old at the time of surgeries. Mice were individually housed after surgeries and for the remainder of the experiment. Mice were maintained on a 12 hr light/dark cycle (Lights off was at 11:59 AM) in a temperature controlled room (23-25° C.). In the nocturnal feeding paradigm, mice had free access to normal chow (Harlan Teklad 2018 Diet: 18.6% crude protein, 6.2% crude fat, 3.5% crude fiber, with energy density of 3.1 kcal/g). […] Mice had free access to tap water throughout all the experiments. The cannula placement validation studies and conventional cage studies were performed in standard mouse polycarbonate conventional cages provided by University of Minnesota's Research Animal Resources (RAR). Weekly cage changes were conducted by lab research staff.
(§2) Mice were anesthetize with a mixture of ketamine (100 mg/kg) and xylazine (5 mg/kg) and were positioned in a stereotaxic apparatus (David Kopf Instruments). A 26-gauge cannula (Cat# 81C315GS4SPC; PlasticsOne, Roanoke, Va.) was inserted in the lateral cerebral ventricle at the coordinates 1.0 mm lateral and 0.46 mm posterior to bregma and 2.3 mm ventral to the skull (Franklin, K. B. J. & Paxinos, G. The Mouse Brain in Stereotaxic Coordinates. (Academic Press, 1997)).
(§3) As stated above, conventional cage experiments were performed in standard mouse polycarbonate conventional cages. […] All experiments followed a cross-over paradigm in which the mouse received saline and compound on different days with a washout period in between each treatment. Statistical analysis was performed using SPSS V23 software (IBM) using a multivariate general linear model followed by a Bonferroni's post hoc test. Results are presented as Mean±SEM. Statistically significant was considered p<0.05.
In male MC4RKO mice, CJL-5-58 was administered at 5 nmols in both a nocturnal paradigm and a fasting-refeeding paradigm in standard conventional cages (FIG. 15). The dose was well handled in the nocturnal paradigm, but minimal effect was observed.

mMC4R = target: T1, mMC4R (Mus musculus, UniProt P56450); experiment: 125I-NDP-MSH competitive binding; conditions: displacement of 125I-NDP-MSH; receptor subtype not printed at b283; read-out: binding affinity IC50
T1 construct: expressed in transfected cells
Experimental: NDP-MSH was radioiodinated with Na^125I utilizing the chloramine T procedure (26). […] HEK293 cells stably expressing wildtype mMC1R or mMC4R were maintained as described above. Transiently transfected HEK293 cells were used for binding experiments on the mMC3R. Transfection was performed in 10 cm plates using FuGene6 transfection reagent (15 μL/plate; Promega), Opti-Mem medium (1.7 mL/plate; Invitrogen), and mMC3R-Flag DNA (3.33 μg/plate) two days prior to binding experiment. One or two days preceding the competition experiments, cell were plated into 12-well tissue culture plates (Corning Life Sciences, Cat. # 353043) and grown to 90-100% confluency. On the day of the assay, media was removed gently. The cells were treated with a freshly diluted aliquot of non-labeled compound at the in well concentration being tested (ranging from 10^−12 to 10^−4 M as appropriate) in assay buffer (DMEM and 0.1% BSA) and a constant amount of ^1251-NDP-MSH (100,000 cpm/well) and were incubated at 37° C. for one hour. […] The radioactivity was quantified on WIZARD^2 Automatic Gamma Counter (PerkinElmer). […] The non-specific values used for calculations was radioactivity of the 10^−6 M unlabeled NDP-MSH. Data was analyzed by a nonlinear regression method using the PRISM program (v4.0; GraphPad Inc.) to generate and calculate dose-response curves and IC50 values.

male wild type mice = assay type: in vivo; conditions: for energy expenditure vs saline / food intake vs saline / respiratory exchange ratio (RER) vs saline / water intake vs saline: 5 nmols CJL-5-58 or 5 nmols each CJL-1-14 and CJL-1-80
Experimental: as §1, §2
Each mouse was administered hPYY and saline on different days following a crossover design in the nocturnal feeding paradigm. In the nocturnal paradigm, compound is administered 2 hours prior to lights out with free access to food and water throughout the entire experiment. There was at least a 4 day washout period between administration to ensure that normal feeding patterns and body weight returned. Food intake and body weight were manually measured 2, 4, and 6 hours after hPYY or saline administration. A mouse with a validated cannula placement for the TSE cage experiments consumed at least 1.0 g more after hPYY administration compared to saline administration 4 hours post-administration.
as §3

T1 sequence (P56450 whole entry): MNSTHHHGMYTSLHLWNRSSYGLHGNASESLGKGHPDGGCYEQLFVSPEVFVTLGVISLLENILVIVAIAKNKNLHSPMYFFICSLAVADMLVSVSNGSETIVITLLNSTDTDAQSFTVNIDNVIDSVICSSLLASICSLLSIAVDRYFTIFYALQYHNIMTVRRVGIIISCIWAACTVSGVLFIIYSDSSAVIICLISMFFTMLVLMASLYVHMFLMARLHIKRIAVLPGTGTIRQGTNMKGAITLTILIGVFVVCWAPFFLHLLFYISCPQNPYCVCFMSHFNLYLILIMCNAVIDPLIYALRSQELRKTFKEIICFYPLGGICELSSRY

CC(=O)N[C@@H](Cc1cnc[nH]1)C(=O)N[C@H](Cc1ccccc1)C(=O)N[C@@H](CCCNC(=N)N)C(=O)N[C@@H](Cc1c[nH]c2ccccc12)C(=O)NCCCOCCOCCOCCCNC(=O)COCC(=O)N[C@@H](Cc1cnc[nH]1)C(=O)N[C@H](Cc1ccc2ccccc2c1)C(=O)N[C@@H](CCCNC(=N)N)C(=O)N[C@@H](Cc1c[nH]c2ccccc12)C(N)=O [CJL-5-58, Ac-His-DPhe-Arg-Trp-(PEDG20)-His-DNal(2′)-Arg-Trp-NH2]
toxicity (male MC4RKO mice; ICV 2.5 to 5 nmols, conventional cages): Some toxicity was observed | adverse reactions (male MC4RKO mice; fasting-refeeding, 5 nmols): some signs of adverse reactions | body weight vs saline (male MC4RKO mice; fasting-refeeding, 5 nmols): no effect on mouse body weight | food intake vs saline (male MC4RKO mice; fasting-refeeding, 5 nmols): decreased food intake at 2, 4, 6, 8 and 24 hours after compound administration | body weight vs saline (male MC4RKO mice; nocturnal paradigm, 5 nmols): significant increase in body weight 6 hours after compound administration | food intake vs saline (male MC4RKO mice; nocturnal paradigm, 5 nmols): immediate reduction in food intake 2 hours after compound administration | tolerability (male MC4RKO mice; nocturnal paradigm, 5 nmols): well handled; also recorded: looked healthy | IC50 (mMC4R): 14 nM | RER, CJL-5-58 vs co-administration of CJL-1-14 and CJL-1-80 (male wild type mice; fasting paradigm): significant differences in RER at the 2, 3, 6, and 7 hour time points | activity vs saline (male wild type mice; fasting paradigm): no significant differences were observed in activity | energy expenditure, CJL-5-58 vs co-administration of CJL-1-14 and CJL-1-80 (male wild type mice; fasting paradigm): significantly higher for CJL-5-58 at the 13 and 17 hour time points | food intake, CJL-5-58 vs co-administration of CJL-1-14 and CJL-1-80 (male wild type mice; fasting paradigm): significant differences in the food intake at 2 and 4 hour time point | number of mice that died (male wild type mice; fasting paradigm): one | energy expenditure reached after treatment (male wild type mice; fasting paradigm, 5 nmol dose, baseline c.a. 12): 17 to 19 kcal/h/kg | energy expenditure vs saline (male wild type mice; fasting paradigm): significantly lower for the first 3 hours post-treatment; also recorded: increased energy expenditure is observed 15, 17, and 21 hours after compound administration | food intake vs saline (male wild type mice; fasting paradigm): decrease in food intake up to 12 hours after administration | respiratory exchange ratio (RER) vs saline (male wild type mice; fasting paradigm): significantly lower RER was observed for the first 9 hours and at 17 hours | water intake vs saline (male wild type mice; fasting paradigm): decrease in water intake was observed with 5 nmols of CJL-5-58 at time points 4, 6, 8, 10, and 12 hours | number of adverse reactions (male wild type mice; fasting paradigm, within 30 minutes of injection): four | time to recovery from adverse reactions (male wild type mice; mice experiencing adverse reactions): < 1 h | activity vs saline (male wild type mice; nocturnal paradigm): increase in activity was observed during the first 5 hours after administration | any parameter, CJL-5-58 vs co-administration of CJL-1-14 and CJL-1-80 (male wild type mice; nocturnal paradigm): no significant differences were observed for any parameter | number of adverse reactions (male wild type mice; nocturnal paradigm): 2 | number of mice that died (male wild type mice; nocturnal paradigm): one | energy expenditure vs saline (male wild type mice; nocturnal paradigm): increase in energy expenditure was observed 5, 13, 15, and 16 hours after treatment | food intake vs saline (male wild type mice; nocturnal paradigm): no significant effect was observed | respiratory exchange ratio (RER) vs saline (male wild type mice; nocturnal paradigm): significantly lowered RER values only until 2 hours after administration | water intake vs saline (male wild type mice; nocturnal paradigm): no difference in water intake was observed
